What all share (format): biochemical
In one assay the target is T1, ROCK I (AA 6-553) (Homo sapiens, UniProt Q13464).
T1 construct: ROCK I (AA 6-553)
The assay can be described thus: ROCK inhibition assay, standard coupled enzyme system ("Enzyme"). The following applies: enzyme-linked assay. Put shortly:
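ROCK I (AA 6-553) at 45 nM and 30 °C with 45 μM ATP and 200 μM peptide, in 100 mM HEPES pH 7.5, 10 mM MgCl2, 25 mM NaCl, 2 mM DTT, 1.5% DMSO. ADP output read by a PK/LDH coupled system: 2.5 mM PEP, 350 μM NADH, 30 μg/ml PK, 10 μg/ml LDH.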

Another assay addresses JAK2 (Homo sapiens, UniProt O60674). Kind of assay: JAK2 inhibition assay (radioactive enzyme assay, as for JAK3). To be noted: average Ki if more than one value determined. As for the experimental part: (§1) Compounds were screened for their ability to inhibit JAK3 using a standard radioactive enzyme assay. 1.5 μL/well of a DMSO stock containing serial dilutions of a compound of the present invention (concentrations ranging from 667 μM to 46 nM) was placed in a 96 well polycarbonate plate. 50 μL per well of kinase buffer (100 mM HEPES (pH 7.4), 10 mM MgCl2, 25 mM NaCl, 1 mM DTT, and 0.01% bovine serum albumin (BSA)) containing 2 μM poly(Glu)4Tyr and 10 μM ATP was also added to the plate. To initiate the reaction, 50 μL kinase buffer containing 2 nM JAK3 enzyme was added. Final ATP concentration was 5 μM [γ-^33P] ATP (200 μCi ^33P ATP/μmol ATP (Perkin Elmer, Cambridge, Mass.). After 20 minutes at room temperature (25° C.), the reaction was stopped by adding 50 μL 20% trichloroacetic acid (TCA)/0.4 mM ATP to each well. The entire content of each well was then transferred to a 96 well glass fiber filter plate using a TomTek Cell Harvester. After washing, 60 μL scintillation fluid was added and ^33P incorporation detected using a Perkin Elmer TopCount. After removing mean background values for all of the data points the data was fit using Prism software to obtain a Ki(app). Inhibition of JAK2 was measured as above except that final poly(Glu)4Tyr concentration was 15 μM and final ATP concentration was 12 μM.

The target of the next assay is T2, JAK3 (Homo sapiens, UniProt P52333).
T2 sequence (P52333 1-1124): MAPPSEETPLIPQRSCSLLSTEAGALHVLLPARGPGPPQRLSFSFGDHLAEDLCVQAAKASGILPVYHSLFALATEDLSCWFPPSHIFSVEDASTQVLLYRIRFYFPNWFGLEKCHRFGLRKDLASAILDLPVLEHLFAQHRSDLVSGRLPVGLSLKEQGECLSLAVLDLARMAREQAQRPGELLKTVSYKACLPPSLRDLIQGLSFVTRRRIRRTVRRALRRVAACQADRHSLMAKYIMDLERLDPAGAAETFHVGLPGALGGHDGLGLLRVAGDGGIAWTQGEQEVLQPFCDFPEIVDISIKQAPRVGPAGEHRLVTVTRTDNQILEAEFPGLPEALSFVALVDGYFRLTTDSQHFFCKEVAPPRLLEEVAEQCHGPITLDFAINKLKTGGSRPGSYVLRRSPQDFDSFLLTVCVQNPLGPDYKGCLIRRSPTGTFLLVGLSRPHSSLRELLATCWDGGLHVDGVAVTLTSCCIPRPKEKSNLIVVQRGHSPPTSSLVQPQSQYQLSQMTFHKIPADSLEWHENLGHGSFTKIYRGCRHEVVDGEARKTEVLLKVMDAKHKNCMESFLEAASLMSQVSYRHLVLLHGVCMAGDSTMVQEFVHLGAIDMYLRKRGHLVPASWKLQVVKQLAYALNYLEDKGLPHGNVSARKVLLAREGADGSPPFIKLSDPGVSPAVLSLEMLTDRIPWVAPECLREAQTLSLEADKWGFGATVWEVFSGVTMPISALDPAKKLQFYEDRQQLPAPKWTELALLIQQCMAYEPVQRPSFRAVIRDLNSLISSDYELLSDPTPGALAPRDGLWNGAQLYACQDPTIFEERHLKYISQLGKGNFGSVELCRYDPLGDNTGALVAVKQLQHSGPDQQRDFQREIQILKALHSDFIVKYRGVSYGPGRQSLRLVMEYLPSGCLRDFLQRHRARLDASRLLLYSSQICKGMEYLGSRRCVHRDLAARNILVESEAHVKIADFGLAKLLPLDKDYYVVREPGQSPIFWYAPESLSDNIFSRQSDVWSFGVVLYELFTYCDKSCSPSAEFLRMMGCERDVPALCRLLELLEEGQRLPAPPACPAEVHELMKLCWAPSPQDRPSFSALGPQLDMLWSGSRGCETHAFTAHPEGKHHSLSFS
The assay can be described thus: JAK3 inhibition assay (standard radioactive enzyme assay). To be noted: average Ki if more than one value determined. As for the experimental part: as §1

pKi: −log10 of the molar value. A value given as a limit tells only on which side of the number the result lay.

T1 sequence (Q13464 6-553, species assumed): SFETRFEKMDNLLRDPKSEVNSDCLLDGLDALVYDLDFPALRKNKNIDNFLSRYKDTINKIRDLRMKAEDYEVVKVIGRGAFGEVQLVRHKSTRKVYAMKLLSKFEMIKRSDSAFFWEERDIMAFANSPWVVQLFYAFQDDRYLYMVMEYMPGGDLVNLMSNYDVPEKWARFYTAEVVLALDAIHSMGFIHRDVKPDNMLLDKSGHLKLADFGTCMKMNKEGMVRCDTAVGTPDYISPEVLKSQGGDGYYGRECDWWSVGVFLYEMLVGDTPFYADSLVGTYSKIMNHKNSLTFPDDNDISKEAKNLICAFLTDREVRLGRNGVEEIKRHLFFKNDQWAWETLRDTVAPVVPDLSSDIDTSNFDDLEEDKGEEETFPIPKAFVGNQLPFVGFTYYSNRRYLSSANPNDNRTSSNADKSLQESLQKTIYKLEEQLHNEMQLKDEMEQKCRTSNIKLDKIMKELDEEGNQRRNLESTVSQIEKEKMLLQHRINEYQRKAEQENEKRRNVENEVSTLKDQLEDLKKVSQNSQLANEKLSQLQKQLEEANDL
Chain of JAK2 (O60674 whole entry, species assumed): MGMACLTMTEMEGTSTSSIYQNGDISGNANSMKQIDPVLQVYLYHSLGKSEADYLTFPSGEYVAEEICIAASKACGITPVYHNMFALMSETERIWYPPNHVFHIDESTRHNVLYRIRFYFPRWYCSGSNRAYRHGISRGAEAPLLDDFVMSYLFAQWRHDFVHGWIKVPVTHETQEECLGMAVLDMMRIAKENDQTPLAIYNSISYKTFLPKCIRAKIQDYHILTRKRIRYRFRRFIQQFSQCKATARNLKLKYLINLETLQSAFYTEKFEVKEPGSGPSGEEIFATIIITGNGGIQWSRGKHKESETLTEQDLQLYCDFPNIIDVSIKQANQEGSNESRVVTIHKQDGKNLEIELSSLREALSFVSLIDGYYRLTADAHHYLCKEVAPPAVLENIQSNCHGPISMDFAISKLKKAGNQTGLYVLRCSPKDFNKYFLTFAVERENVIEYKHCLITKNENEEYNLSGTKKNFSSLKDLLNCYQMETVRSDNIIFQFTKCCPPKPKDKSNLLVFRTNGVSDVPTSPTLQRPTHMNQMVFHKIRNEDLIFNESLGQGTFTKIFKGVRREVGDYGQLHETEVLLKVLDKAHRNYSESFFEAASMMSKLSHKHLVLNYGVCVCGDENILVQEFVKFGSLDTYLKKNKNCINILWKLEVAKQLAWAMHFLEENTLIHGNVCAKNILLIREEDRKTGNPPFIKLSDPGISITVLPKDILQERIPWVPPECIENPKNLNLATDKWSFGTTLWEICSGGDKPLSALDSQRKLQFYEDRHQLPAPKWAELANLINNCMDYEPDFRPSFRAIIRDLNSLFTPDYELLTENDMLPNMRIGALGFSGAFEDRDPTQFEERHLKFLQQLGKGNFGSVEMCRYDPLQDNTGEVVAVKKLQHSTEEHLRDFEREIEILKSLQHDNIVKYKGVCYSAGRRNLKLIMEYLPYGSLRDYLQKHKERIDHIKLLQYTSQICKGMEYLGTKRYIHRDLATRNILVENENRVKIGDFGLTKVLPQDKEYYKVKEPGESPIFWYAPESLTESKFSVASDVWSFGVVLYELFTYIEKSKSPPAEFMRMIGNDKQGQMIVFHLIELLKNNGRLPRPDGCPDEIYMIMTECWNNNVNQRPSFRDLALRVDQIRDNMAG

A word on the pKi: it is −log10 of the Ki, conventionally taken in molar units. In the case of `CC(=O)Nc1cnc2[nH]cc(-c3cccc(N4CCCN(C(C)=O)CC4)n3)c2c1` [Compound 140], the pKi is 5.30 to 6.30 on ROCK I (AA 6-553), above 6.30 at JAK2 and above 6.30 at JAK3.
Consider `CC(=O)N1[C@H](C)CN(c2cc(-c3nnn[nH]3)cc(-c3c[nH]c4ncc(Cl)cc34)n2)C[C@@H]1C` [Compound 111], for which the results for the pKi at ROCK I (AA 6-553), on JAK2 and on JAK3 were 5.30 to 6.30, above 6.30 and above 6.30, respectively.
As for `CC(=O)N1CCCN(c2cccc(-c3c[nH]c4ncc(C)cc34)n2)CC1` [Compound 40], the pKi was 5.30 to 6.30 on ROCK I (AA 6-553), above 6.30 on JAK2 and above 6.30 on JAK3.
`COC(=O)Nc1cccc(-c2c[nH]c3ncc(Cl)cc23)n1` [Compound 87]: the pKi at ROCK I (AA 6-553) is 5.30 to 6.30; on JAK2, above 6.30; at JAK3 it was above 6.30.
Regarding `CC(=O)N1[C@H](C)CN(c2cccc(-c3c[nH]c4ncc(C(=O)OCC(C)C)cc34)n2)C[C@@H]1C` [Compound 74], the pKi on ROCK I (AA 6-553), on JAK2 and at JAK3 was above 6.30 throughout.
Regarding `CCC(C)C(=O)Nc1cnc2[nH]cc(-c3cccc(N4C[C@@H](C)N(C(C)=O)[C@@H](C)C4)n3)c2c1` (stereo partly drawn) [Compound 180], the pKi at ROCK I (AA 6-553) was 5.30 to 6.30; on JAK2, above 6.30; at JAK3, above 6.30.
On to `CCC(=O)Nc1cnc2[nH]cc(-c3cccc(N4CCCN(C(C)=O)CC4)n3)c2c1` [Compound 141], for which the negative logarithm of the Ki (pKi) at ROCK I (AA 6-553) was 5.30 to 6.30; on JAK2 it was above 6.30; on JAK3 it was above 6.30.
With `CC(=O)N1[C@H](C)CN(c2cccc(-c3c[nH]c4ncc(NC(=O)OCC(C)(C)C)cc34)n2)C[C@@H]1C` [Compound 64], the figures for the pKi on ROCK I (AA 6-553), on JAK2 and on JAK3 were 5.30 to 6.30, above 6.30 and above 6.30, respectively.
Regarding `CC(=O)N1[C@H](C)CN(c2cccc(-c3c[nH]c4ncc(OCCN(C)C)cc34)n2)C[C@@H]1C` [Compound 94], the pKi on ROCK I (AA 6-553), at JAK2 and at JAK3 was 5.30 to 6.30 throughout.
`CC(C)COC(=O)Nc1cccc(-c2c[nH]c3ncc(Cl)cc23)n1` [Compound 90]: the negative logarithm of the Ki (pKi) is 5.30 to 6.30 on ROCK I (AA 6-553), above 6.30 at JAK2 and above 6.30 on JAK3.
For `COc1ccc(OC(=O)Nc2cnc3[nH]cc(-c4cccc(N5C[C@@H](C)N(C(C)=O)[C@@H](C)C5)n4)c3c2)cc1` [Compound 71], the figures for the pKi at ROCK I (AA 6-553), on JAK2 and on JAK3 were 5.30 to 6.30, above 6.30 and above 6.30, respectively.
Consider `C=CC(=O)Nc1cnc2[nH]cc(-c3cccc(N4CCCN(C(=O)CC#N)CC4)n3)c2c1` [Compound 138], for which the pKi is 5.30 to 6.30 on ROCK I (AA 6-553), above 6.30 at JAK2 and above 6.30 at JAK3.
Regarding `CC(=O)N1[C@H](C)CN(c2cccc(-c3c[nH]c4ncc(O)cc34)n2)C[C@@H]1C` [Compound 77], the pKi on ROCK I (AA 6-553) was 5.30 to 6.30; on JAK2, above 6.30; at JAK3, above 6.30.
For the molecule `CN1C2CCC1CN(c1cccc(-c3c[nH]c4ncc(Cl)cc34)n1)CC2` (stereo not drawn) [Compound 82], the negative logarithm of the Ki (pKi) on ROCK I (AA 6-553), at JAK2 and at JAK3 was above 6.30 throughout.
Consider `CC(=O)N1[C@H](C)CN(c2cccc(-c3c[nH]c4ncc(NC(=O)CN5CCOCC5)cc34)n2)C[C@@H]1C` [Compound 116], for which the pKi at ROCK I (AA 6-553) is 5.30 to 6.30; at JAK2, above 6.30; on JAK3 it was above 6.30.
Regarding `CCC(=O)N1CCN(c2cccc(-c3c[nH]c4ncc(Cl)cc34)n2)CC1` [Compound 85], the pKi is 5.30 to 6.30 on ROCK I (AA 6-553), above 6.30 on JAK2 and above 6.30 at JAK3.
Turning to `CC(=O)N1[C@H](C)CN(c2cccc(-c3c[nH]c4ncc(NC(=O)CN5CCNCC5)cc34)n2)C[C@@H]1C` [Compound 115], the negative-log Ki (pKi) at ROCK I (AA 6-553) is 5.30 to 6.30; at JAK2 it was above 6.30; at JAK3 it was above 6.30.
For `Clc1cnc2[nH]cc(-c3cccc(NCc4ccccc4)c3)c2c1` [Compound 145], the pKi was 5.30 to 6.30 at ROCK I (AA 6-553), above 6.30 at JAK2 and above 6.30 on JAK3.
Take `O=C(Nc1cccc(-c2c[nH]c3ncc(Cl)cc23)n1)OCc1ccccc1` [Compound 91]: the negative-log Ki (pKi) on ROCK I (AA 6-553), on JAK2 and on JAK3 was 5.30 to 6.30 in each case.
Regarding `Cc1cc(-c2c[nH]c3ncc(Cl)cc23)c2ccccc2n1` [Compound 198], the pKi was 5.30 to 6.30 on ROCK I (AA 6-553), below 5.30 on JAK2 and 5.30 to 6.30 at JAK3.
Consider `CC(=O)N1CCCN(c2cccc(-c3c[nH]c4ncc(C(=O)O)cc34)n2)CC1` [Compound 126], for which the pKi on ROCK I (AA 6-553) is 5.30 to 6.30; at JAK2, below 5.30; at JAK3, 5.30 to 6.30.
`CC(=O)N1[C@H](C)CN(c2cccc(-c3c[nH]c4ncc(NC(=O)N5CCOCC5)cc34)n2)C[C@@H]1C` [Compound 127]: the pKi is 5.30 to 6.30 on ROCK I (AA 6-553), above 6.30 at JAK2 and above 6.30 at JAK3.
Consider `CC(=O)N1[C@H](C)CN(c2cccc(-c3c[nH]c4ncc(OCc5ccccc5)cc34)n2)C[C@@H]1C` [Compound 193], for which the pKi on ROCK I (AA 6-553), at JAK2 and on JAK3 was above 6.30 each time.
With `COc1cccc(-c2c[nH]c3ncc(Cl)cc23)n1` [Compound 201], the pKi on ROCK I (AA 6-553) was 5.30 to 6.30; on JAK2, above 6.30; on JAK3, above 6.30.
`Clc1cnc2[nH]cc(-c3ccc4ncccc4c3)c2c1` [Compound 200]: the pKi is 5.30 to 6.30 on ROCK I (AA 6-553), 5.30 to 6.30 at JAK2 and above 6.30 on JAK3.
Turning to `Clc1cnc2[nH]cc(-c3ccc4ccccc4c3)c2c1` [Compound 199], the pKi on ROCK I (AA 6-553) was 5.30 to 6.30; on JAK2 it was 5.30 to 6.30; on JAK3, above 6.30.
As for `Nc1cc(C(=O)O)cc(-c2c[nH]c3ncc(Cl)cc23)c1` [Compound 148], the negative-log Ki (pKi) is above 6.30 on ROCK I (AA 6-553), 5.30 to 6.30 on JAK2 and above 6.30 at JAK3.
As to `CC(=O)N1[C@H](C)CN(c2cccc(-c3c[nH]c4ncc(NC(=O)OCC(C)C)cc34)n2)C[C@@H]1C` [Compound 63], the negative logarithm of the Ki (pKi) at ROCK I (AA 6-553), at JAK2 and at JAK3 was above 6.30 in each case.
On to `O=C(O)c1ccc(-c2c[nH]c3ncc(Cl)cc23)nc1` [Compound 106], for which the pKi was 5.30 to 6.30 at ROCK I (AA 6-553), above 6.30 on JAK2 and above 6.30 at JAK3.
With `O=C(O)c1ccc(-c2c[nH]c3ncc(Cl)cc23)cc1` [Compound 104], the results for the pKi on ROCK I (AA 6-553), at JAK2 and at JAK3 were 5.30 to 6.30, above 6.30 and above 6.30, respectively.
Turning to `CCCC(=O)N1CCN(c2cccc(-c3c[nH]c4ncc(Cl)cc34)n2)CC1` [Compound 86], the negative logarithm of the Ki (pKi) on ROCK I (AA 6-553) was 5.30 to 6.30; at JAK2 it was above 6.30; on JAK3, above 6.30.
Take `CCOC(=O)N1CCCN(c2cccc(-c3c[nH]c4ncc(Cl)cc34)n2)CC1` [Compound 84]: the pKi is 5.30 to 6.30 at ROCK I (AA 6-553), above 6.30 on JAK2 and above 6.30 on JAK3.
On to `O=C(O)c1cc(NCc2ccccc2)cc(-c2c[nH]c3ncc(Cl)cc23)c1` [Compound 147], for which the figures for the pKi at ROCK I (AA 6-553), at JAK2 and on JAK3 were 5.30 to 6.30, above 6.30 and above 6.30, respectively.
